This note sets out measurements from BindingDB's records for doi:10.1016/j.bmcl.2004.02.020 (Pfizer, 2004).

The test has as its target T1, C-C chemokine receptor type 1 (Homo sapiens, UniProt P32246).
T1 sequence (P32246 whole entry): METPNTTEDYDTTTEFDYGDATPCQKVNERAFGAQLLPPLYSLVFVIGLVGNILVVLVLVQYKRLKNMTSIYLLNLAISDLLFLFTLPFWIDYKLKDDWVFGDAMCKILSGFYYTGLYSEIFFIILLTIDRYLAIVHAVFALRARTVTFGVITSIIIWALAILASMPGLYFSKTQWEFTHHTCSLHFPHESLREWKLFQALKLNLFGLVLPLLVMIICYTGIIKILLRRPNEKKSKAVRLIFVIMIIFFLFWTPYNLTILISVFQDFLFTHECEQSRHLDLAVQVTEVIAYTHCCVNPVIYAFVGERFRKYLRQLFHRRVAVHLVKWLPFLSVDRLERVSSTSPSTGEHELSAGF
Briefly: Compound was tested for inhibition of CCL3 binding to chemokine receptor-1; inactive at a concentration of 32 uM.
In the case of `CC[C@H](C)[C@H](NC(=O)c1cnc2ccccc2c1)[C@@H](O)C[C@@H](CC(C)C)C(=O)NC`, the IC50 was < 50 µM. As to `CNC(=O)[C@H](CC(C)C)C[C@@H](O)[C@@H](CC1CCCCC1)NC(=O)c1cnc2ccccc2c1`, the IC50 is < 50 µM. Take `CNC(=O)[C@H](CC(C)C)C[C@@H](O)[C@H](CC1CCCCC1)NC(=O)c1cnc2ccccc2c1`: the 50% inhibitory concentration (IC50) was < 50 µM. With `CNC(=O)[C@@H](CC(C)C)C[C@@H](O)[C@H](CC1CCCCC1)NC(=O)c1cnc2ccccc2c1`, the IC50 was < 50 µM. As for `CNC(=O)CC[C@H](O)[C@H](CC1CCCCC1)NC(=O)c1cnc2ccccc2c1`, the IC50 was < 50 µM. As for `CNC(=O)[C@@H](CC(C)C)C[C@H](O)[C@@H](CC1CCCCC1)NC(=O)c1cnc2ccccc2c1`, the IC50 was < 50 µM.
